Experiment [1] can be described thus: Inhibition of recombinant N-terminal His/MBP-tagged NDM-1 (unknown origin) expressed in Escherichia coli BL21 (DE3) measured immediately by spectrophotometry.
Experiment [2] concerns Escherichia coli DH5[alpha]. As to the kind of experiment: Inhibition of Escherichia coli DH5alpha NDM-1 assessed as MIC of meropenem at 8 mg/L by CLSI based microdilution method. A general note: Dilution methods test growth across graded concentrations, often in twofold steps.
For experiment [3], the system named is Escherichia coli DH5[alpha]. The following applies: dose 32.0 mg/L.
Experiment [4] has as its system Escherichia coli. As to the kind of experiment: microbe, parasite or virus in culture. The following applies: DH5[alpha].
Description: Antibacterial activity against Escherichia coli DH5alpha assessed as MIC of meropenem at 32 mg/L by CLSI based broth microdilution method (Rvb < 0.25 mg/L)

In brackets after ≈: the same amount, converted by molar mass. A value given as a limit tells only on which side of the number the result lay.

Broadly, the IC50 is the concentration needed to halve the response being measured. For the compound `C[C@H](CS)C(=O)N1CCC[C@H](C(=O)O)C1`, the IC50 in experiment [1] came to 28.4 µM. Consider `C[C@H](CS)C(=O)N1CCC(C(=O)O)CC1`, for which the MIC in experiment [2] turned out to be 4 µg/mL; in experiment [3], 2 µg/mL (≈ 8.65 µM). Further, the IC50 in experiment [1] turned out to be 4.9 µM.

Take `C[C@H](CS)C(=O)N1CCC[C@@H]1C(=O)O` [D-CAPTOPRIL]: the IC50 in experiment [1] amounted to 21.8 µM. For the same compound, the MIC in experiment [3] was found to be 4 µg/mL (≈ 18.4 µM). With `C[C@H](CS)C(=O)N1CCCCC[C@@H]1C(=O)O`, the IC50 in experiment [1] stood at 20.4 µM. Turning to `O=C(O)[C@H]1CCCN1C(=O)C(CS)CS`, in experiment [1], the IC50 turned out to be 75 µM. Same read-out and setting: for `C[C@H](CS)C(=O)N1Cc2ccccc2C[C@@H]1C(=O)O` the value was greater than 300 µM; for `C[C@H](CS)C(=O)N1CCC(CC(=O)O)CC1`, 19.8 µM. Regarding `C[C@H](CS)C(=O)N1CCc2ccccc2[C@@H]1C(=O)O`, the MIC is 8 µg/mL in experiment [2] and 4 µg/mL (≈ 14.3 µM) in experiment [3]. In addition, in experiment [1], the IC50 was found to be 4.6 µM. Regarding `C[C@H](CS)C(=O)N1CCCC[C@@H]1C(=O)O`, the MIC in experiment [2] worked out at 4 µg/mL; in experiment [3], 2 µg/mL (≈ 8.65 µM). The IC50 in experiment [1] came to 6.9 µM.

As for `C[C@H](CS)C(=O)N1CCC(C(N)=O)CC1`, the IC50 in experiment [1] was 11.1 µM. Still for that read-out and setting: to `C[C@H](CS)C(=O)N1CCC(CC(N)=O)CC1` belongs 27.9 µM. For `O=C(O)CN(CCN(CC(=O)O)CC(=O)O)CC(=O)O` [EDETIC ACID], the MIC in experiment [2], in experiment [3] and in experiment [4] was less than 0.25 µg/mL throughout.

The record behind these values is ChEMBL document CHEMBL4673350 (Bioorg Med Chem, 2021).
